Test results from patent publication US20070048371A1, “Pharmaceutical formulations/composition of guanfacine suitable for single dose form administration daily” (priority 2005, published 2007).

Key:
[1] = Example 3: Phase I single-dose crossover bioequivalence/dose proportionality study, 1 mg, 2 mg, 4 mg tablets, healthy adult volunteers; format: in vivo, human; details: for half-life: t1/2; for Vd/F: Vz/F
Method: Objectives: The study was designed to assess the bioequivalence of guanfacine 2 mg and 4 mg tablets from table 2 and to investigate the dose proportionality of 1 mg, 2 mg, and 4 mg doses.
Methods: This was a Phase I, randomized, open-label, single-dose, five period, four-treatment crossover design with a separate lead-in period.
Forty-nine (49) healthy adult volunteers completed the study. During period 1, all subjects received a single 1 mg dose administered after and overnight fast. Prior to period 2, subjects were randomly assigned to one of four sequence groups, with 13 subjects per sequence. During treatment periods 2-5, subjects received their assigned treatment of 2 mg or 4 mg. All subjects were to receive two single doses of 2 mg tablets and two single doses of 4 mg tablets during the course of the study. Doses during periods 2-5 were also administered after an overnight fast.

[2] = Example 2: open-label dose-escalation pharmacokinetic and safety study in children and adolescents with ADHD; format: in vivo, human; details: for CL/F: ADHD patients, N = 14; for AUC(0-t): read-out: AUC0-last
Method: Objective: The objective of this study was to assess the pharmacokinetics of controlled-release guanfacine after a single 2 mg dose or multiple doses of 2 mg and 4 mg from Table 2.
Methods: An open-label, dose-escalation study in male and female children (aged 6-12 years) and adolescents (aged 13-17 years) with ADHD. Subjects weighed 25 kg (55 lb) or more but were not considered overweight in the opinion of the investigator. Their electrocardiogram readings (ECGs) were within normal ranges, and their blood pressure measurements were within the 95th percentile for their age, height, and gender. […] Informed consent was given by the patient's parent or guardian.
[…] The dose was then titrated down to 3 mg on days 30 to 32, and 2 mg on days 33 to 35. Pharmacokinetic assessments were made after the single 2 mg dose and after 6 days of repeated 2 mg and 4 mg doses.

[3] = 28 children and adolescents with ADHD, 2-4 mg qd dose escalation

## N=C(N)NC(=O)Cc1c(Cl)cccc1Cl [guanfacine]
[1]; human, in vivo, 1 mg, AUC0-last
  AUC(0-t): ~29.3 ng·h/mL
[1]; human, in vivo, 1 mg, AUC∞
  AUC(0-inf): ~32.4 ng·h/mL
[1]; human, in vivo, 1 mg, mean Cmax
  Cmax: ~0.98 ng/mL
[1]; human, in vivo, 1 mg, median Tmax
  Tmax: ~6 h
[1]; human, in vivo, 1 mg
  half-life: 17.5 ± 3.8 h
[1]; human, in vivo, 4 mg, AUC0-last
  AUC(0-t): ~120 ng·h/mL
[1]; human, in vivo, 4 mg, AUC∞
  AUC(0-inf): ~125 ng·h/mL
[1]; human, in vivo, 4 mg, mean Cmax
  Cmax: ~3.58 ng/mL
[1]; human, in vivo, 4 mg, median Tmax
  Tmax: ~5 h
[1]; human, in vivo, po, 1 mg
  CL/F: 560 ± 194 mL/mm
  Vd/F: 823 ± 249 L
  half-life: 17.5 ± 3.83 h
[1]; human, in vivo, po, 1 mg, AUC0-t
  AUC(0-t): 29.3 ± 8.84 ng·h/mL
[1]; human, in vivo, po, 1 mg, AUC0-∞
  AUC(0-inf): 32.4 ± 8.78 ng·h/mL
[1]; human, in vivo, po, 1 mg, Cmax
  Cmax: 0.98 ± 0.26 ng/mL
[1]; human, in vivo, po, 1 mg, tmax
  Tmax: 6 h
[1]; human, in vivo, po, 2 mg
  AUC0-∞: 57.8 ± 19.1 ng·h/mL
  AUC(0-t): 54.0 ± 17.6 ng·h/mL
  Cmax: 1.54 ± 0.53 ng/mL
  Vz/F: 889 ± 241 L
  t1/2: 16.7 ± 4.12 h
  Vd/F: 894 ± 328 L
  half-life: 16.4 ± 3.46 h
[1]; human, in vivo, po, 2 mg, AUC0-t
  AUC(0-t): 55 ± 18 ng·h/mL
[1]; human, in vivo, po, 2 mg, AUC0-∞
  AUC(0-inf): 58.1 ± 18.8 ng·h/mL
[1]; human, in vivo, po, 2 mg, Cmax
  Cmax: 1.59 ± 0.49 ng/mL
[1]; human, in vivo, po, 2 mg, tmax
  Tmax: 6 h
[1]; human, in vivo, po, 4 mg
  AUC0-∞: 123 ± 44.6 ng·h/mL
  AUC(0-t): 119 ± 43.4 ng·h/mL
  Cmax: 3.59 ± 1.40 ng/mL
  Vz/F: 866 ± 393 L
  t1/2: 16.2 ± 4.15 h
  Vd/F: 854 ± 294 L
  half-life: 17.1 ± 5.51 h
[1]; human, in vivo, po, 4 mg, AUC0-t
  AUC(0-t): 120 ± 41.5 ng·h/mL
[1]; human, in vivo, po, 4 mg, AUC0-∞
  AUC(0-inf): 125 ± 46 ng·h/mL
[1]; human, in vivo, po, 4 mg, Cmax
  Cmax: 3.58 ± 1.39 ng/mL
[1]; human, in vivo, po, 4 mg, tmax
  Tmax: 5.01 h
[1]; human, in vivo
  half-life: 17.1 ± 5.5 h
[1]; single 1 mg, 2 mg, 4 mg doses, healthy adults
  deaths or serious adverse events: no deaths or serious adverse events
[2]; [3]
  abnormalities on ECGs, hematologic parameters, or serum chemistries: No clinically significant abnormalities
  discontinuations due to adverse events: no discontinuations
  severity of most AEs: mild to moderate
  subjects with somnolence (AE possibly or probably due to treatment): 93%
[2]; 28 children and adolescents with ADHD, 2-4 mg qd dose escalation, 6 subjects
  subjects judged to have severe somnolence: 21%
[2]; Day 14, 2 mg once daily oral, adolescents 13-17 yrs
  CL/F: 826 ± 486 mL/min
[2]; Day 14, 2 mg once daily oral, children 6-12 yrs
  CL/F: 552 ± 215 mL/min
[2]; Day 28, 4 mg once daily oral, adolescents 13-17 yrs
  CL/F: 607 ± 166 mL/min
[2]; Day 28, 4 mg once daily oral, children 6-12 yrs
  CL/F: 522 ± 212 mL/min
[2]; both sexes, human, plasma, oral, 2 mg, dose of 2 mg of guanfacine, fasted patients ages 6-12 suffering from ADHD
  AUC(0-t): ~56.9 ng·h/mL
[2]; both sexes, human, plasma, oral, 2 mg, dose of 2 mg of guanfacine, fasted patients ages 6-12 suffering from ADHD, read-out: AUC∞
  AUC(0-inf): ~65.2 ng·h/mL
[2]; both sexes, human, plasma, oral, 2 mg, dose of 2 mg of guanfacine, fasted patients ages 6-12 suffering from ADHD, read-out: mean Cmax
  Cmax: ~2.55 ng/mL
[2]; both sexes, human, plasma, oral, 2 mg, dose of 2 mg of guanfacine, fasted patients ages 6-12 suffering from ADHD, read-out: median Tmax
  Tmax: ~5 h
[2]; both sexes, human, plasma, oral, 2 mg, dose of 2 mg of guanfacine, fasted patients ages 13-17 suffering from ADHD
  AUC(0-t): ~42.7 ng·h/mL
